# Assay results published in article PMC12072338, “Allosteric Modulation of GCase Enhances Lysosomal Activity and Reduces ER Stress in GCase-Related Disorders” (International Journal of Molecular Sciences, 2025).
# Like-named read-outs stand apart in the source and are kept apart here.
# Target: T1, rhGCase (Cerezyme) (Homo sapiens, UniProt P04062, R534H)
# T1 construct: Human full-length wild-type GCase protein (Cerezyme®, Genzyme, Naarden, Netherlands); purchased Genzyme, Naarden, Netherlands
# T1 sequence (P04062 40-536 R534H): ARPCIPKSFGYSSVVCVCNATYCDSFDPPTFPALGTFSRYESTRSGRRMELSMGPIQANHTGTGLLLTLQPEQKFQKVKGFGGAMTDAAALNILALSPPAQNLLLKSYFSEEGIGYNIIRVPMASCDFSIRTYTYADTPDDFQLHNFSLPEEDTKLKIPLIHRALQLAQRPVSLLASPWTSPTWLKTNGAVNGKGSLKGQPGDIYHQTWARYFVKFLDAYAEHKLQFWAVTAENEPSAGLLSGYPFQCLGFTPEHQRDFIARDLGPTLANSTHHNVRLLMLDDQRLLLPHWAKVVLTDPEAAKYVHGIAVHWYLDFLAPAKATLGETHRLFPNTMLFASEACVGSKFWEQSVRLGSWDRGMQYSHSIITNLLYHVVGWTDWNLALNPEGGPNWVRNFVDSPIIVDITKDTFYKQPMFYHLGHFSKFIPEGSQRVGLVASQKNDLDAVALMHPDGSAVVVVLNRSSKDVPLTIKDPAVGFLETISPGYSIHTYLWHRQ
# Assay: nanoDSF thermal stability of rhGCase
# Type: binding
# Description: The stabilizing effects of GT-02287 and GT-02329 on GCase were assessed by nanoDSF. rhGCase protein (Cerezyme®, Genzyme, Naarden, Netherlands) was prepared at 0.1 mg/mL in two buffers: buffer 1 (10 mmol/L Citric Acid, 20 mmol/L Na2HPO4, pH 7.0) and buffer 2 (50 mmol/L Histidine, 150 mmol/L NaCl, pH 5.0). DMSO was added to a final concentration of 2%.
# Samples were loaded into nanoDSF standard capillaries and analyzed using the Prometheus NT.48 instrument (NanoTemper Technologies, Munich, Germany). The thermal unfolding of GCase was monitored by tracking intrinsic fluorescence changes in tryptophan and tyrosine residues as the temperature increased from 20 °C to 95 °C at 2 °C/min. Each condition was run in duplicate at 25 μM and 100 μM compound concentrations. Melting temperatures (Tm) were determined from the fluorescence curves, and ΔTm shifts between compound-treated and control samples were calculated. The significance of Tm shifts was assessed using two criteria: an absolute ΔTm shift greater than 1.0 °C (instrumental criterion) and an absolute ΔTm standard deviation of 0.2 °C or less (statistical criterion).
smiles,measurement,setting,value
"OC[C@H]1CNC[C@@H](O)[C@@H]1O [IFG, isofagomine]",Effect on protein thermal stability at pH 5.0,pH 5.0,demonstrated stabilization
same,ΔTm at 100 µM,"pH 5.0, 100 µM compound, mean ± SD of two experiments, read-out: ΔTm at pH 5.0 and 100 µM",3 °C
same,ΔTm at 25 µM,"pH 7.0, 25 µM compound, mean ± SD of two experiments",9.9 ± 0.2 °C
same,ΔTm at 100 µM,"pH 7.0, 100 µM compound, mean ± SD of two experiments, read-out: ΔTm at pH 7.0 and 100 µM",11.5 °C
